Six compounds from patent publication US7569563B2, “Substituted quinolones II” (AiCuris GmbH & Co. HK, priority 2005, dated 2009) can be followed below.

Each structure is given as a SMILES string. pEC50: −log10 of the molar value. Counter-ions that a name gives are not always drawn.

In one series the test system is HCMV. The series is described as follows: Anti-HCMV (anti-human cytomegalovirus) cytopathogenicity test. The conditions noted are these: for pEC50: Human betaherpesvirus 5, 144 h, concentration inhibiting CPE by 50% vs untreated virus control, HCMV-infected NHDF cells, M.O.I. 0.001-0.002, 6 days; for SI HCMV (selectivity index): SI = CC50 (NHDF)/EC50 (HCMV). The series is classed as cell-based. Here is the method:
Anti-HCMV (Anti-Human Cytomegalovirus) Cytopathogenicity Tests The test compounds are employed as 50 millimolar (mM) solutions in dimethyl sulfoxide (DMSO). Ganciclovir®, Foscamet® and Cidofovir® are used as reference compounds. After the addition of in each case 2 μl of the 50, 5, 0.5 and 0.05 mM DMSO stock solutions to 98 μl portions of cell culture medium in row […] for duplicate determinations, 1:2 dilutions are carried out with 50 μl portions of medium up to row 1 l of the 96-well plate. The wells in rows 1 and 12 each contain 50 μl of medium. 150 μl of a suspension of 1×10^4 cells (human prepuce fibroblasts [NHDF]) are then pipetted into each of the wells (row I=cell control) and, in rows 2-12, a mixture of HCMV-infected and uninfected NHDF cells (M.O.I.=0.001-0.002), i.e. 1-2 infected cells per 1000 uninfected cells. Row 12 (without substance) serves as virus control. The final test concentrations are 250-0.0005 μM. The plates are incubated at 37° C./5% CO2 for 6 days, i.e. until all the cells are infected in the virus controls (100% cytopathogenic effect [CPE]). The wells are then fixed and stained by the addition of a mixture of formalin and Giemsa's dye (30 minutes), washed with double-distilled water and dried in a drying oven at 50° C. The plates are then assessed visually using an overhead microscope (plaque multiplier from Technomara). The following data can be acquired from the test plates: EC50 (HCMV)=substance concentration in μM which inhibits the CPE (cytopathic effect) by 50% compared with the untreated virus control; SI (selectivity index)=CC50 (NHDF)/EC50 (HCMV).

Series [1] can be described thus: Cytostatic effects on NHDF cells in the anti-HCMV cytopathogenicity test. The conditions noted are these: human, human prepuce fibroblasts (NHDF cells); substance concentration at which no visible cytostatic effects on NHDF cells are evident vs untreated cell control; 6 days incubation. The series is classed as cell-based. How it is done:
Anti-HCMV (Anti-Human Cytomegalovirus) Cytopathogenicity Tests The test compounds are employed as 50 millimolar (mM) solutions in dimethyl sulfoxide (DMSO). Ganciclovir®, Foscamet® and Cidofovir® are used as reference compounds. After the addition of in each case 2 μl of the 50, 5, 0.5 and 0.05 mM DMSO stock solutions to 98 μl portions of cell culture medium in row […] for duplicate determinations, 1:2 dilutions are carried out with 50 μl portions of medium up to row 1 l of the 96-well plate. The wells in rows 1 and 12 each contain 50 μl of medium. 150 μl of a suspension of 1×10^4 cells (human prepuce fibroblasts [NHDF]) are then pipetted into each of the wells (row I=cell control) and, in rows 2-12, a mixture of HCMV-infected and uninfected NHDF cells (M.O.I.=0.001-0.002), i.e. 1-2 infected cells per 1000 uninfected cells. Row 12 (without substance) serves as virus control. The final test concentrations are 250-0.0005 μM. The plates are incubated at 37° C./5% CO2 for 6 days, i.e. until all the cells are infected in the virus controls (100% cytopathogenic effect [CPE]). The wells are then fixed and stained by the addition of a mixture of formalin and Giemsa's dye (30 minutes), washed with double-distilled water and dried in a drying oven at 50° C. The plates are then assessed visually using an overhead microscope (plaque multiplier from Technomara). The following data can be acquired from the test plates: CC50 (NHDF)=substance concentration in μM at which no visible cytostatic effects on the cells are evident compared with the untreated cell control;

`COc1c(N2C[C@@H](C)N(CC(=O)O)[C@@H](C)C2)c(F)cc2c(=O)c(C(=O)NCc3ccc(Cl)cc3Cl)cn(CC(F)(F)F)c12` [Example 28, {(2RS,6SR)-4-[3-{[(2,4-Dichlorobenzyl)amino]carbonyl}-6-fluoro-8-methoxy-4-oxo-1-(2,2,2-trifluoroethyl)-1,4-dihydroquinolin-7-yl]-2,6-dimethylpiperazin-1-yl}ethanoic acid hydroformate]: in the series on HCMV, the pEC50 (commonly −log10 of the EC50, conventionally taken in molar units) is 8.64 and the “SI HCMV (selectivity index)” value is listed as 8032. In addition, the 50% cytotoxic concentration (CC50) (as a rule, the concentration at which the toxic effect on the cells reaches its halfway point) at 6 days in series [1] worked out at 18 µM.

In the case of `COc1c(N2C[C@@H](C)N(CC(=O)O)[C@@H](C)C2)c(F)cc2c(=O)c(C(=O)NCc3ccc(Cl)cc3C)cn([C@H]3C[C@H]3F)c12` [Example 36], in the series on HCMV, the pEC50 is 8.30 and the “SI HCMV (selectivity index)” value is reported as 6402. This compound also displayed a CC50 at 6 days in series [1] of 24 µM.

Consider `COc1c(N2C[C@@H](C)N(CC(=O)O)[C@@H](C)C2)c(F)cc2c(=O)c(C(=O)NCc3ccc(Cl)cc3Cl)cn(CCF)c12` [Example 30], for which, in the series on HCMV, the negative logarithm of the EC50 (pEC50) was 8.10 and the “SI HCMV (selectivity index)” value is reported as 5875. Moreover, the CC50 at 6 days in series [1] stood at 47 µM.

With `COc1c(N2C[C@@H](C)N(CC(=O)O)[C@@H](C)C2)c(F)cc2c(=O)c(C(=O)NCc3ccc(Cl)cc3Cl)cn(C3CC3)c12` [Example 29, 4-[3-{1-Cyclopropyl-[(2,4-dichlorobenzyl)amino]carbonyl}-1-fluoro-8-methoxy-4-oxo-1,4-dihydroquinolin-7-yl]-(2RS,6SR)-2,6-dimethylpiperazin-1-yl}ethanoic acid hydrochloride], in the series on HCMV, the negative-log EC50 (pEC50) is 8.00 and the “SI HCMV (selectivity index)” value came out at 4700. The same compound had a CC50 at 6 days in series [1] of 47 µM.

In the case of `COc1c(N2C[C@@H](C)N(C(C)C(=O)O)[C@@H](C)C2)c(F)cc2c(=O)c(C(=O)NCc3ccc(Cl)cc3Cl)cn(C3CC3)c12` (stereo partly drawn) [Example 49], in the series with HCMV, the pEC50 is 7.74 and the “SI HCMV (selectivity index)” value turned out to be 5222. This compound registered a CC50 at 6 days in series [1] of 94 µM.

Consider `CCOC(=O)CN1[C@H](C)CN(c2c(F)cc3c(=O)c(C(=O)NCc4ccc(Cl)cc4Cl)cn(CC(F)(F)F)c3c2OC)C[C@@H]1C` [Example 1, Ethyl{(2RS,6SR)-4-[3-{[(2,4-dichlorobenzyl)amino]carbonyl}-6-fluoro-8-methoxy-4-oxo-1-(2,2,2-trifluoroethyl)-1,4-dihydroquinolin-7-yl]-2,6-dimethylpiperazin-1-yl}ethanoate hydroformate], for which, in the series on HCMV, the pEC50 was 7.72 and the “SI HCMV (selectivity index)” value came to 579. Further, it took 11 µM to reach half-maximal cytotoxicity in series [1] (CC50 at 6 days).
